Data: patent US20240368406A1, “STABLE LIQUID PHANTOM FOR NEAR-INFRARED FLUORESCENCE VERIFICATION” (SURGVISION GMBH, priority 2021, published 2024)
Blank lines part the entries; values can stand above or below the compound they belong to.

Assays:
[1] = cited from earlier work
[2] = Stability of the phantom solutions at 25° C. (residual absorbance); format: physicochemical; conditions: storage at 25° C. in dark
Protocol: (§1) Stability was measured as reduction in the absorbance at the maximum wavelength of the dye acquired using a UV/VIS spectrophotometer, denoting reduction of the dye monomer content in solution. All the results were then reported as residual percentage vs the baseline (T=0), wherein at time=0 the percentage is 100%. A decrease in absorbance is associated with the reduction of the concentration of the dye in the formulation buffer, indicating low stability and degradation of the main chromophore species.
The stability of the formulations under stressed conditions was also investigated.

[3] = Stability of the phantom solutions at +2-8° C. during long-term storage (residual absorbance); format: physicochemical; conditions: 3 μM dye in HEPES 50 mM, pH 7.4, +2-8° C. protected from light
Protocol: Stability was measured as reduction in the absorbance at the maximum wavelength of the dye acquired using a UV/VIS spectrophotometer, denoting reduction of the dye monomer content in solution. […] A decrease in absorbance is associated with the reduction of the concentration of the dye in the formulation buffer, indicating low stability and degradation of the main chromophore species. The stability of the formulations under long-term storage conditions was also investigated. In particular, samples of 3 μM IRDye […] and 3 μM IRDye 800BK dissolved in HEPES buffer were stored refrigerated at +2-8° C. protected from light exposure for at least 6 months. For the long-term stability study at 2-8° C., samples of.

[4] = Stability of the phantom solutions at +2-8° C. (residual absorbance, UV/VIS); format: physicochemical; conditions: +2-8° C.
Protocol: Several stability studies were performed to evaluate the effect of different buffers, additives such as excipients or preservatives, and storage conditions on the dye formulation. In particular the stability of the formulations after storage at +2-8° C. in a refrigerator was firstly investigated.
as §1
In the Tables below the residual absorbance of different dyes, i.e. […] and S0456, in some representative organic buffering solutions is reported after storage of the formulations at +2-8° C.

[5] = Stability of the phantom solutions at +2-8° C. in the presence of additives (residual absorbance); format: physicochemical
Protocol: as §1
The effect of the presence of an additive on the stability of the formulations of the invention has been also investigated.
The preparation of the above buffers is described below:
50 mM HEPES (pH 7.4)+0.04% Tween 20: to prepare 100 mL of buffering solution, 1.19 g of HEPES were dissolved in 80 mL of water; 40 μL of Tween 20 were added and the pH was adjusted to 7.4 with 0.1 M HCl. The buffering solution was then brought to 100 mL volume with water and filtered on 0.22 μm membrane in sterile conditions.
50 mM HEPES (PH 7.4)+0.02% Sodium Azide: to prepare 100 mL of buffering solution, 1.19 g of HEPES and 20 mg of Sodium Azide were dissolved in 80 mL of water and the pH was adjusted to 7.4 with 0.1 M HCl. The buffering solution was then brought to 100 mL volume with water and filtered on 0.22 μm membrane in sterile conditions.
10 mM HEPES (PH 7.0)+10% EtOH: to prepare 100 mL of buffering solution, 0.24 g of HEPES were dissolved in 80 mL of water and the pH was adjusted to 7.0 with 0.1 M HCl.
Then, 10 mL of 100% Ethanol were added. The buffering solution was then brought to 100 mL volume with water and filtered on 0.22 μm membrane in sterile conditions.
Analogous solutions were prepared with the same procedure for MOPS, BES and TRICINE buffers.

SMILES: O=S(=O)(O)CCN(CCO)CCO [BES, 2-[bis(2-hydroxyethyl)amino]ethanesulfonic acid]
pKa (20° C.) [1]: 7.2

SMILES: CC1(C)C(=CC=C2CCCC(C=CC3=[N+](CCCCCC(=O)[O-])c4ccc(S(=O)(=O)[O-])cc4C3(C)C)=C2Oc2ccc(S(=O)(=O)[O-])cc2)N(CCCCS(=O)(=O)[O-])c2ccc(S(=O)(=O)[O-])cc21.[Na+].[Na+].[Na+].[Na+] [IRDye 800CW]
Residual absorbance percentage ([2]; 3 μM dye in HEPES (50 mM), 1 week): 100.9%
Residual absorbance percentage ([2]; 3 μM dye in HEPES (50 mM), 2 weeks): 98.4%
Residual absorbance percentage ([2]; 3 μM dye in MOPS (50 mM), 1 week): 99.7%
Residual absorbance percentage ([2]; 3 μM dye in MOPS (50 mM), 2 weeks): 97.3%
Residual absorbance percentage ([3]; 1 month): 99.3%
Residual absorbance percentage ([3]; 3 months): 97.7%
Residual absorbance percentage ([3]; 6 months): 96.2%
Residual absorbance percentage ([4]; 3 μM dye in HEPES (50 mM, pH 7.4), 1 week (Table II)): 100.9%
Residual absorbance percentage ([4]; 3 μM dye in HEPES (50 mM, pH 7.4), 2 weeks (Table II)): 100.3%
Residual absorbance percentage ([4]; 3 μM dye in HEPES (50 mM, pH 7.4), 4 weeks (Table II)): 99.3%
Residual absorbance percentage ([4]; 3 μM dye in MES (50 mM, pH 6.2), 1 week): 99.4%
Residual absorbance percentage ([4]; 3 μM dye in MES (50 mM, pH 6.2), 2 weeks): 96.7%
Residual absorbance percentage ([4]; 3 μM dye in MES (50 mM, pH 6.2), 4 weeks): 93.2%
Residual absorbance percentage ([4]; 3 μM dye in MOPS (50 mM, pH 7.0), 1 week (Table II)): 99.3%
Residual absorbance percentage ([4]; 3 μM dye in MOPS (50 mM, pH 7.0), 2 weeks (Table II)): 98.0%
Residual absorbance percentage ([4]; 3 μM dye in MOPS (50 mM, pH 7.0), 4 weeks (Table II)): 95.2%
Residual absorbance percentage ([4]; 3 μM dye in PBS (50 mM, pH 7.4), 1 week): 100%
Residual absorbance percentage ([4]; 3 μM dye in PBS (50 mM, pH 7.4), 2 weeks): 92.9%
Residual absorbance percentage ([4]; 3 μM dye in PBS (50 mM, pH 7.4), 4 weeks): 79.1%
Residual absorbance percentage ([4]; 3 μM dye in PBS (50 mM, pH 7.4), 4 weeks, listed as IRDye 8000W): lower than 80%
Residual absorbance percentage ([4]; 3 μM dye in TRICINE (50 mM, pH 8.0), 1 week (Table II)): 100.5%
Residual absorbance percentage ([4]; 3 μM dye in TRICINE (50 mM, pH 8.0), 2 weeks (Table II)): 99.9%
Residual absorbance percentage ([4]; 3 μM dye in TRICINE (50 mM, pH 8.0), 4 weeks (Table II)): 99.3%
Residual absorbance percentage ([5]; 3 μM dye in HEPES (50 mM, pH 7.4) +0.02% sodium azide, +2-8° C., 1 week): 96.9%
Residual absorbance percentage ([5]; 3 μM dye in HEPES (50 mM, pH 7.4) +0.02% sodium azide, +2-8° C., 2 weeks): 92.4%
Residual absorbance percentage ([5]; 3 μM dye in HEPES (50 mM, pH 7.4) +0.02% sodium azide, +2-8° C., 4 weeks): 89.1%
Residual absorbance percentage ([5]; 3 μM dye in HEPES (50 mM, pH 7.4) +0.04% Tween 20, +2-8° C., 1 week): 100.5%
Residual absorbance percentage ([5]; 3 μM dye in HEPES (50 mM, pH 7.4) +0.04% Tween 20, +2-8° C., 2 weeks): 95.8%
Residual absorbance percentage ([5]; 3 μM dye in HEPES (50 mM, pH 7.4) +0.04% Tween 20, +2-8° C., 4 weeks): 92.4%
Residual absorbance percentage ([5]; 3 μM dye in TRICINE (50 mM, pH 8.0) +0.02% sodium azide, +2-8° C., 1 week): 97.7%
Residual absorbance percentage ([5]; 3 μM dye in TRICINE (50 mM, pH 8.0) +0.02% sodium azide, +2-8° C., 2 weeks): 93.0%
Residual absorbance percentage ([5]; 3 μM dye in TRICINE (50 mM, pH 8.0) +0.02% sodium azide, +2-8° C., 4 weeks): 89.8%
Residual absorbance percentage ([5]; 3 μM dye in TRICINE (50 mM, pH 8.0) +0.04% Tween 20, +2-8° C., 1 week): 97.7%
Residual absorbance percentage ([5]; 3 μM dye in TRICINE (50 mM, pH 8.0) +0.04% Tween 20, +2-8° C., 2 weeks): 93.0%
Residual absorbance percentage ([5]; 3 μM dye in TRICINE (50 mM, pH 8.0) +0.04% Tween 20, +2-8° C., 4 weeks): 89.8%

Residual absorbance percentage ([4]; 3 μM dye in HEPES (50 mM, pH 7.4), 1 week (Table III)): 99.0%
Residual absorbance percentage ([4]; 3 μM dye in HEPES (50 mM, pH 7.4), 2 weeks (Table III)): 98.5%
Residual absorbance percentage ([4]; 3 μM dye in HEPES (50 mM, pH 7.4), 4 weeks (Table III)): 96.9%
Residual absorbance percentage ([4]; 3 μM dye in MOPS (50 mM, pH 7.0), 1 week (Table III)): 98.8%
Residual absorbance percentage ([4]; 3 μM dye in MOPS (50 mM, pH 7.0), 2 weeks (Table III)): 98.5%
Residual absorbance percentage ([4]; 3 μM dye in MOPS (50 mM, pH 7.0), 4 weeks (Table III)): 96.1%
Residual absorbance percentage ([4]; 3 μM dye in TRICINE (50 mM, pH 8.0), 1 week (Table III)): 99.7%
Residual absorbance percentage ([4]; 3 μM dye in TRICINE (50 mM, pH 8.0), 2 weeks (Table III)): 98.7%
Residual absorbance percentage ([4]; 3 μM dye in TRICINE (50 mM, pH 8.0), 4 weeks (Table III)): 97.9%
SMILES: CC1(C)C(/C=C/C2=C(Cl)C(=C/C=C3/N(CCCCS(=O)(=O)[O-])c4ccc(S(=O)(=O)[O-])cc4C3(C)C)/CCC2)=[N+](CCCCS(=O)(=O)[O-])c2ccc(S(=O)(=O)[O-])cc21.[Na+].[Na+].[Na+] [S0456]
